What was measured:
Assay type in all cases: binding
BRD4-BD1 = tested on: T1, BRD4-BD1; test: Intact MS photoaffinity labeling screen, BRD4-BD1 (302 nm, LCMS-TOF); conditions: for experimental hit status BRD4-BD1: 0/1 flag; for MS labeling percentage, BRD4: BRD4-BD1, 302 nm 10 min; for BRD4-BD1: experimental hit status flag (0/1)
T1 construct: screened the PhP library against the first bromodomain of BRD4 (BRD4-BD1); purchased GSK/GenScript
Method in brief: (§1)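 Labeling detected as mass additions in deconvoluted intact-protein LCMS-TOF spectra. Protein at 1 μM in PBS was first mixed with one fragment per well on ice for 15 min, followed by 10 min UV exposure at 302 nm.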

lysozyme (Lyo) = test: Intact protein MS photoaffinity labeling screen, lysozyme; conditions: intact protein MS after 10 min irradiation
Method in brief: (§2)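 Each fragment was placed in its own well and incubated with the protein for 15 min to allow non-covalent binding. Samples were then analysed directly from the plate by intact protein mass spectrometry, and labeling was scored as mass additions on the protein, reported as labeling %.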

KRas^G12D = tested on: T2, KRas^G12D; test: Intact MS photoaffinity labeling screen, KRas G12D (302 nm, LCMS-TOF); conditions: for experimental hit status KRAS-G12D: 0/1 flag; for MS labeling percentage, KRas: KRas G12D, 302 nm 10 min; for KRAS-G12D: experimental hit status flag (0/1)
T2 construct: purchased GSK/GenScript
Method in brief: as §1

STAT5B-NTD [1] = tested on: T3, STAT5B-NTD; test: Intact MS labeling screen, STAT5B-NTD conjugated with photocatalyst Ir-G2-PEG3-COOH (450 nm); conditions: 450 nm 10 min;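 note: 0.14 µL of 100 mM DMSO fragment stock added to the conjugate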
T3 construct: His-SUMO (N, cleaved yes); made in house; host or cells: E. coli BL21 RILP
Method in brief: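 Ir-G2-PEG3-COOH photocatalyst (10 eq) activated 30 min with EDC/NHS/BOP, then conjugated to STAT5B-NTD (7 µM) overnight at RT or 1 h at 37 °C in dark. PhP added, 1 h dark, then 450 nm irradiation 10 min at 4 °C; labeling read by intact LC-MS, positive ion mode, m/z 100–2000.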

STAT5B-NTD [2] = tested on: T3, STAT5B-NTD; test: Intact MS photoaffinity labeling screen, STAT5B-NTD (365 nm, UHPLC-MS); conditions: for experimental hit status STAT5B-NTD: 0/1 flag; for MS labeling percentage, STAT5B: STAT5B-NTD, 365 nm 10 min, no photocatalyst; for STAT5B-NTD: experimental hit status flag (0/1);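 for MS labeling percentage, STAT5B: 0.17 µL of 100 mM DMSO fragment stock added to the protein sample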
Method in brief: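 UV irradiation at 365 nm for 10 min at 4 °C. Labeling read by intact-protein UHPLC-MS, positive ion mode, m/z 100–2000.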

myoglobin (Myo) = test: Intact protein MS photoaffinity labeling screen, myoglobin; conditions: intact protein MS after 10 min irradiation
Method in brief: as §2

[3] = tested on: carbonic anhydrase II (CA); test: Intact protein MS photoaffinity labeling screen, carbonic anhydrase; conditions: intact protein MS after 10 min irradiation
Method in brief: as §2

[4] = sheet PhP, experimental hit status flag given as 0 or 1
[5] = hit flag 1/0, sheet PhP, photoaffinity labeling screen

| Compound | experimental hit status BRD4-BD1 (BRD4-BD1) | MS labeling percentage, BRD4 (BRD4-BD1) | MS labeling percentage, Lyo (lysozyme (Lyo)) | experimental hit status KRAS-G12D (KRas^G12D) | MS labeling percentage, KRas (KRas^G12D) | MS labeling percentage, STAT5B+photocat (STAT5B-NTD [1]) | experimental hit status STAT5B-NTD (STAT5B-NTD [2]) | MS labeling percentage, STAT5B (STAT5B-NTD [2]) | MS labeling percentage, Myo (myoglobin (Myo)) | MS labeling percentage, CA [3] | BRD4-BD1 (experimental hit status) (BRD4-BD1; [4]) | KRAS-G12D (experimental hit status) (KRas^G12D; [4]) | STAT5B-NTD (experimental hit status) (STAT5B-NTD [2]; [4]) | BRD4-BD1 (BRD4-BD1) | KRAS-G12D (KRas^G12D) | STAT5B-NTD (STAT5B-NTD [2]) | BRD4-BD1 (experimental hit status) (BRD4-BD1; [5]) | KRAS-G12D (experimental hit status) (KRas^G12D; [5]) | STAT5B-NTD (experimental hit status) (STAT5B-NTD [2]; [5]) |
| --- | --- | --- | --- | --- | --- | --- | --- | --- | --- | --- | --- | --- | --- | --- | --- | --- | --- | --- | --- |
| COC(=O)C(NC(=O)CCC1(C)N=N1)c1ccc(C)cc1 (stereo not shown) [PhP019, c1cc(C)ccc1C(C(=O)OC)NC(=O)CCC2(C)N=N2] | 0 | 0.3% | 0% | 0 | 0% | 2.7% | 0 | 1% | 0.1% | 0.2% |  |  |  |  |  |  |  |  |  |
| CC1(CCC(=O)NCCNC(=O)c2ccc(Cl)cc2)N=N1 [PhP027, N1=NC1(C)CCC(=O)NCCNC(=O)c2ccc(Cl)cc2] | 0 | 0.5% | 0% | 0 | 0.1% | 5.2% | 0 | 1% | 0.2% | 0.4% |  |  |  |  |  |  |  |  |  |
| CC1(CCC(=O)NCc2cccc(C(N)=O)c2)N=N1 [PhP059, N1=NC1(C)CCC(=O)NCc2cccc(c2)C(=O)N] |  | 0.7% | 0% |  | 0.8% | 0.3% |  | 1% | 0.7% | 0.6% | 0 | 0 | 0 |  |  |  |  |  |  |
| Cc1ccc2[nH]c(CNC(=O)CCC3(C)N=N3)nc2c1 [PhP030, c1cc(C)cc(c12)nc([nH]2)CNC(=O)CCC3(C)N=N3] | 0 | 1.2% | 0% | 0 | 1.4% | 0.7% | 0 | 0% | 0.4% | 0.7% |  |  |  |  |  |  |  |  |  |
| CC1(CCC(=O)NCc2ccc(-n3ccnc3)cc2)N=N1 [PhP033, N1=NC1(C)CCC(=O)NCc2ccc(cc2)-n3ccnc3] | 0 | 1.1% | 0% | 0 | 0.5% | 0.3% | 0 | 1% | 0.3% | 0.5% |  |  |  |  |  |  |  |  |  |
| CC1(CCC(=O)NCc2cncc3ccccc23)N=N1 [PhP008, N1=NC1(C)CCC(=O)NCc(cnc2)c(c23)cccc3] |  | 0.5% | 0% |  | 1% | 19.6% |  | 2.9% | 0.6% | 0.9% |  |  |  | 0 | 0 | 0 |  |  |  |
| C[C@@H](NC(=O)CCC1(C)N=N1)[C@@H](O)c1cccc(O)c1 [PhP070, Oc(c1)cccc1[C@H](O)[C@@H](C)NC(=O)CCC2(C)N=N2] |  | 0.3% | 1% |  | 0% | 4.2% |  | 1% | 0.1% | 0% | 0 | 0 | 0 |  |  |  |  |  |  |
| CC1(CCC(=O)Nc2nc(-c3c[nH]c(C(N)=O)c3)cs2)N=N1 [PhP011, N1=NC1(C)CCC(=O)Nc2nc(cs2)-c3c[nH]c(c3)C(=O)N] |  | 0.2% | 0% |  | 0.2% | 3.4% |  | 2% | 0% | 0% |  |  |  | 0 | 0 | 0 |  |  |  |
| Cc1nc(NC(=O)CCC2(C)N=N2)c2cnn(-c3ccc(F)cc3)c2n1 [PhP041, c1cc(F)ccc1-n(nc2)c(c23)nc(C)nc3NC(=O)CCC4(C)N=N4] |  | 0.2% | 0% |  | 0.3% | 10.6% |  | 0% | 0% | 0.3% |  |  |  |  |  |  | 0 | 0 | 0 |
| Cc1n[nH]c(C)c1CCNC(=O)CCC1(C)N=N1 [PhP061, Cc1n[nH]c(C)c1CCNC(=O)CCC2(C)N=N2] |  | 0.2% | 0% |  | 0.1% | 0% |  | 1% | 0.2% | 0.2% | 0 | 0 | 0 |  |  |  |  |  |  |
| COc1cc(C)nc(NC(=O)CCC2(C)N=N2)n1 [PhP074, COc1cc(C)nc(n1)NC(=O)CCC2(C)N=N2] |  | 0.4% | 0% |  | 0.4% | 1.8% |  | 1% | 0.4% | 0.7% | 0 | 0 | 0 |  |  |  |  |  |  |
| CC1(CCC(=O)NCCCN2CCN(C(=O)OC(C)(C)C)CC2)N=N1 [PhP056, CC(C)(C)OC(=O)N1CCN(CC1)CCCNC(=O)CCC2(C)N=N2] |  | 0.2% | 0% |  | 0% | 1.2% |  | 0% | 0% | 0.3% |  |  |  |  |  |  | 0 | 0 | 0 |
| CC1(CCC(=O)NC2CCCN(c3ncc[nH]c3=O)C2)N=N1 (stereo not shown) [PhP029, N1=NC1(C)CCC(=O)NC2CCCN(C2)c3ncc[nH]c3=O] | 0 | 0.2% | 0% | 0 | 0% | 0.3% | 0 | 0% | 0.1% | 0% |  |  |  |  |  |  |  |  |  |

Reference: PMC11292009, “Mapping protein binding sites by photoreactive fragment pharmacophores” (Communications Chemistry, 2024)
